# Test system: Transport facilitation protein genes
# Test: DNA chip mRNA expression in yeast, transport facilitation protein genes (Table 5)
# Assay type: cell-based, Saccharomyces cerevisiae S288C
# Procedure, shortened: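 Value is the scanned fluorescence intensity ratio of exposed versus chemical-free cells. Log-phase S288C yeast in YPD at 25° C. received one toxic substance for two hours, dosed to slow growth without killing; Cy3/Cy5-labeled cDNA from oligo-dT-purified mRNA was hybridized to a whole-genome chip at 65° C.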
structure (smiles),measurement,setting,value
"[Cl][Hg][Cl] [(3), HgCl2]",The level of expressed mRNA in the presence of chemical substance/The level of expressed mRNA in the absence of chemical substance,yeast gene YGR224W,1.2
same,The level of expressed mRNA in the presence of chemical substance/The level of expressed mRNA in the absence of chemical substance,yeast gene YGR260W,3.4
same,The level of expressed mRNA in the presence of chemical substance/The level of expressed mRNA in the absence of chemical substance,yeast gene YGR281W,1.3
same,The level of expressed mRNA in the presence of chemical substance/The level of expressed mRNA in the absence of chemical substance,yeast gene YHL035C,0.9
same,The level of expressed mRNA in the presence of chemical substance/The level of expressed mRNA in the absence of chemical substance,yeast gene YHL040C,1.5
same,The level of expressed mRNA in the presence of chemical substance/The level of expressed mRNA in the absence of chemical substance,yeast gene YHL047C,1.0
same,The level of expressed mRNA in the presence of chemical substance/The level of expressed mRNA in the absence of chemical substance,yeast gene YHR026W,1.9
same,The level of expressed mRNA in the presence of chemical substance/The level of expressed mRNA in the absence of chemical substance,yeast gene YHR092C,7.5
same,The level of expressed mRNA in the presence of chemical substance/The level of expressed mRNA in the absence of chemical substance,yeast gene YHR094C,5.3
same,The level of expressed mRNA in the presence of chemical substance/The level of expressed mRNA in the absence of chemical substance,yeast gene YHR175W,2.4
same,The level of expressed mRNA in the presence of chemical substance/The level of expressed mRNA in the absence of chemical substance,yeast gene YIL006W,1.4
same,The level of expressed mRNA in the presence of chemical substance/The level of expressed mRNA in the absence of chemical substance,yeast gene YIL022W,1.1
same,The level of expressed mRNA in the presence of chemical substance/The level of expressed mRNA in the absence of chemical substance,yeast gene YIL056W,6.2
same,The level of expressed mRNA in the presence of chemical substance/The level of expressed mRNA in the absence of chemical substance,yeast gene YIL088C,2.1
same,The level of expressed mRNA in the presence of chemical substance/The level of expressed mRNA in the absence of chemical substance,yeast gene YJL034W,3.0
same,The level of expressed mRNA in the presence of chemical substance/The level of expressed mRNA in the absence of chemical substance,yeast gene YJL212C,3.1
same,The level of expressed mRNA in the presence of chemical substance/The level of expressed mRNA in the absence of chemical substance,yeast gene YJL219W,3.1
same,The level of expressed mRNA in the presence of chemical substance/The level of expressed mRNA in the absence of chemical substance,yeast gene YJR077C,2.0
same,The level of expressed mRNA in the presence of chemical substance/The level of expressed mRNA in the absence of chemical substance,yeast gene YJR106W,1.5
same,The level of expressed mRNA in the presence of chemical substance/The level of expressed mRNA in the absence of chemical substance,yeast gene YJR121W,3.3
same,The level of expressed mRNA in the presence of chemical substance/The level of expressed mRNA in the absence of chemical substance,yeast gene YKL016C,0.7
same,The level of expressed mRNA in the presence of chemical substance/The level of expressed mRNA in the absence of chemical substance,yeast gene YKL146W,1.3
same,The level of expressed mRNA in the presence of chemical substance/The level of expressed mRNA in the absence of chemical substance,yeast gene YKR039W,1.3
same,The level of expressed mRNA in the presence of chemical substance/The level of expressed mRNA in the absence of chemical substance,yeast gene YKR067W,1.5
same,The level of expressed mRNA in the presence of chemical substance/The level of expressed mRNA in the absence of chemical substance,yeast gene YLL028W,4.6
same,The level of expressed mRNA in the presence of chemical substance/The level of expressed mRNA in the absence of chemical substance,yeast gene YLR081W,2.8
same,The level of expressed mRNA in the presence of chemical substance/The level of expressed mRNA in the absence of chemical substance,yeast gene YLR295C,1.1
same,The level of expressed mRNA in the presence of chemical substance/The level of expressed mRNA in the absence of chemical substance,yeast gene YLR348C,1.2
same,The level of expressed mRNA in the presence of chemical substance/The level of expressed mRNA in the absence of chemical substance,yeast gene YLR378C,2.6
same,The level of expressed mRNA in the presence of chemical substance/The level of expressed mRNA in the absence of chemical substance,yeast gene YMR011W,9.4
same,The level of expressed mRNA in the presence of chemical substance/The level of expressed mRNA in the absence of chemical substance,yeast gene YMR162C,1.1
same,The level of expressed mRNA in the presence of chemical substance/The level of expressed mRNA in the absence of chemical substance,yeast gene YMR203W,3.0
same,The level of expressed mRNA in the presence of chemical substance/The level of expressed mRNA in the absence of chemical substance,yeast gene YNL055C,5.5
same,The level of expressed mRNA in the presence of chemical substance/The level of expressed mRNA in the absence of chemical substance,yeast gene YNL259C,1.1
same,The level of expressed mRNA in the presence of chemical substance/The level of expressed mRNA in the absence of chemical substance,yeast gene YNR072W,0.5
same,The level of expressed mRNA in the presence of chemical substance/The level of expressed mRNA in the absence of chemical substance,yeast gene YOL119C,1.5
same,The level of expressed mRNA in the presence of chemical substance/The level of expressed mRNA in the absence of chemical substance,yeast gene YOL156W,2.5
same,The level of expressed mRNA in the presence of chemical substance/The level of expressed mRNA in the absence of chemical substance,yeast gene YOL163W,2.1
same,The level of expressed mRNA in the presence of chemical substance/The level of expressed mRNA in the absence of chemical substance,yeast gene YOR035C,0.3
same,The level of expressed mRNA in the presence of chemical substance/The level of expressed mRNA in the absence of chemical substance,yeast gene YOR130C,1.4
same,The level of expressed mRNA in the presence of chemical substance/The level of expressed mRNA in the absence of chemical substance,yeast gene YOR153W,5.1
same,The level of expressed mRNA in the presence of chemical substance/The level of expressed mRNA in the absence of chemical substance,yeast gene YOR273C,1.7
same,The level of expressed mRNA in the presence of chemical substance/The level of expressed mRNA in the absence of chemical substance,yeast gene YOR316C,1.5
same,The level of expressed mRNA in the presence of chemical substance/The level of expressed mRNA in the absence of chemical substance,yeast gene YOR332W,1.0
same,The level of expressed mRNA in the presence of chemical substance/The level of expressed mRNA in the absence of chemical substance,yeast gene YOR348C,1.2
same,The level of expressed mRNA in the presence of chemical substance/The level of expressed mRNA in the absence of chemical substance,yeast gene YPL036W,2.8
same,The level of expressed mRNA in the presence of chemical substance/The level of expressed mRNA in the absence of chemical substance,yeast gene YPL134C,1.6
same,The level of expressed mRNA in the presence of chemical substance/The level of expressed mRNA in the absence of chemical substance,yeast gene YPL271W,4.1
same,The level of expressed mRNA in the presence of chemical substance/The level of expressed mRNA in the absence of chemical substance,yeast gene YPR192W,0.9
same,The level of expressed mRNA in the presence of chemical substance/The level of expressed mRNA in the absence of chemical substance,yeast gene YPR194C,0.5
